Results from the supplement of paper PMC10307832.

Experiments:
Assay in all cases: relative viability (nuclei count vs DMSO), 5 days (fraction); higher = more cells survive
[1] = compound: Cc1cc([C@@H](C)Nc2ccccc2C(=O)O)c2nc(N3CCOCC3)cc(=O)n2c1 [AZD6482] + C[C@]1(O)C[C@@H](c2nc(-c3ccc4ccc(-c5ccccc5)nc4c3)c3c(N)nccn32)C1 [Linsitinib] (partner 1 µM)
Procedure, shortened: (§1)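 Dosing by pin tool came one day after lung cancer cell lines were seeded in 1536-well plates, using either one drug or a fixed anchor-drug dose plus five library-drug doses (not always all listed) in √10 steps. After 5 days, nuclei were counted on 4× images. Relative viability is treated-well nuclei count divided by vehicle-well nuclei count, and values are medians of duplicate plates.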

[2] = compound: COc1cc2nc(N3CCCN(C)CC3)nc(NC3CCN(Cc4ccccc4)CC3)c2cc1OC + Nc1ncn([C@H]2C[C@H](O)[C@@H](CO)O2)c(=O)n1 [Decitabine] (partner 2 µM)
Procedure, shortened: as §1

[3] = compound: COc1cc2nc(N3CCCN(C)CC3)nc(NC3CCN(Cc4ccccc4)CC3)c2cc1OC + N=C(N)NC(=N)NCCc1ccccc1 [Phenformin] (partner 250 µM)
Procedure, shortened: as §1

[4] = compound: COc1cc2nc(N3CCCN(C)CC3)nc(NC3CCN(Cc4ccccc4)CC3)c2cc1OC + CCNC(=O)c1noc(-c2cc(C(C)C)c(O)cc2O)c1-c1ccc(CN2CCOCC2)cc1 [Luminespib] (partner 0.01 µM)
Procedure, shortened: as §1

| Cell Line | relative viability ([1]; first compound 0.08 µM) | relative viability ([1]; first compound 0.253 µM) | relative viability ([1]; first compound 0.8 µM) | relative viability ([1]; first compound 2.53 µM) | relative viability ([1]; first compound 8 µM) | relative viability ([2]; first compound 0.2 µM) | relative viability ([2]; first compound 0.6325 µM) | relative viability ([2]; first compound 2 µM) | relative viability ([2]; first compound 6.325 µM) | relative viability ([3]; first compound 0.2 µM) | relative viability ([3]; first compound 0.6325 µM) | relative viability ([3]; first compound 2 µM) | relative viability ([3]; first compound 6.325 µM) | relative viability ([4]; first compound 0.2 µM) | relative viability ([4]; first compound 0.6325 µM) | relative viability ([4]; first compound 2 µM) | relative viability ([4]; first compound 6.325 µM) |
| --- | --- | --- | --- | --- | --- | --- | --- | --- | --- | --- | --- | --- | --- | --- | --- | --- | --- |
| NCI-H1944 | 0.929 | 0.834 | 0.922 | 0.688 | 0.622 | 0.465 | 0.505 | 0.391 | 0.455 | 0.21 | 0.221 | 0.201 | 0.203 | 0.829 | 0.668 | 0.863 | 0.661 |
| LU99A | 0.445 | 0.44 | 0.434 | 0.331 | 0.361 | 0.863 | 0.857 | 0.893 | 0.811 | 0.846 | 0.827 | 0.691 | 0.857 | 0.258 | 0.246 | 0.225 | 0.231 |
| SW 1573 | 0.66 | 0.678 | 0.493 | 0.443 | 0.572 | 0.542 | 0.48 | 0.402 | 0.182 | 0.373 | 0.424 | 0.369 | 0.163 | 0.179 | 0.27 | 0.356 | 0.152 |
| NCI-H2347 | – | 0.943 | 0.949 | 0.571 | 0.84 | 0.586 | 0.617 | 0.615 | 0.606 | 0.399 | 0.447 | 0.555 | 0.408 | 0.57 | 0.521 | 0.446 | 0.524 |
| NCI-H2009 | 0.911 | 1.18 | 1.16 | 0.68 | 0.795 | 0.396 | 0.392 | 0.43 | 0.375 | 0.471 | 0.447 | 0.56 | 0.385 | 1.05 | 1.08 | 1.06 | 0.937 |
| HCC-15 | 0.803 | 0.894 | 0.858 | 0.812 | 0.922 | 0.688 | 0.875 | 0.649 | 0.495 | 0.443 | 0.485 | 0.572 | 0.463 | 0.174 | 0.205 | 0.342 | 0.241 |
| HCC-44 | 0.413 | 0.527 | 0.429 | 0.539 | 0.362 | 1.01 | 0.855 | 0.936 | 0.944 | 0.252 | 0.376 | 0.339 | 0.27 | 0.96 | 1.08 | 1.34 | 1.34 |
| COR-L23 | 0.595 | 0.933 | 1.03 | 0.565 | 0.686 | 0.466 | 0.477 | 0.527 | 0.471 | 0.456 | 0.446 | 0.494 | 0.398 | 0.752 | 0.731 | 0.761 | 0.614 |
| HCC-78 | 0.285 | 0.209 | 0.223 | 0.214 | 0.236 | 0.642 | 0.683 | 0.729 | 0.712 | 0.73 | 0.793 | 0.675 | 0.777 | – | – | – | – |
| NCI-H1299 | 0.907 | 1.03 | 1.11 | 0.803 | 1.17 | – | – | – | – | – | – | – | – | – | – | – | – |
| NCI-H727 | 0.203 | 0.296 | 0.284 | – | 0.281 | 0.756 | 1.02 | 0.865 | 0.726 | 0.478 | 0.415 | 0.447 | 0.348 | 0.332 | 0.355 | 0.512 | 0.56 |
| NCI-H2087 | 0.902 | 0.929 | 1.09 | 0.815 | 0.964 | 0.318 | 0.261 | 0.219 | 0.212 | 0.413 | 0.439 | 0.48 | 0.393 | 0.188 | 0.162 | 0.364 | 0.136 |
| NCI-H1650 | – | – | – | – | – | 0.403 | 0.399 | 0.377 | 0.353 | 0.494 | 0.612 | 0.379 | 0.369 | 0.181 | 0.19 | 0.197 | 0.174 |
| ChaGo-K-1 | – | – | – | – | – | 0.553 | 0.506 | 0.49 | 0.504 | 0.51 | 0.494 | 0.492 | 0.498 | 0.569 | 0.671 | 0.74 | 0.527 |
| NCI-H2228 | 0.48 | 0.38 | 0.38 | 0.469 | 0.428 | – | – | – | – | 0.271 | 0.298 | 0.224 | 0.141 | 0.162 | 0.12 | 0.138 | 0.101 |
| SW 900 | – | – | – | – | – | 0.448 | 0.501 | 0.412 | 0.373 | 0.522 | 0.682 | 0.645 | 0.47 | 0.143 | 0.188 | 0.18 | 0.156 |
| NCI-H1563 | 1.02 | 0.951 | 0.908 | 0.843 | 0.759 | – | – | – | – | 0.638 | 0.75 | 0.68 | 0.666 | 0.544 | 0.515 | 0.506 | 0.507 |
| A549 | 0.478 | 0.347 | 0.466 | – | 0.432 | 0.227 | 0.238 | 0.263 | – | 0.185 | 0.165 | 0.195 | 0.146 | – | – | – | – |
| NCI-H2342 | – | – | – | – | – | 0.791 | 0.785 | 0.716 | 0.662 | 0.597 | 0.512 | 0.649 | 0.606 | 0.689 | 0.673 | 0.677 | 0.75 |
| NCI-H2170 | – | – | – | – | – | 0.487 | 0.454 | 0.49 | 0.46 | 0.402 | 0.407 | 0.425 | 0.387 | 0.887 | 0.648 | 0.88 | 0.69 |
| NCI-H1623 | – | – | – | – | – | – | – | – | – | 0.62 | 0.621 | 0.522 | 0.569 | 0.493 | 0.586 | 0.502 | 0.513 |
| NCI-H522 | – | – | – | – | – | 0.623 | 0.694 | 0.588 | 0.698 | 0.649 | 0.68 | 0.613 | 0.745 | 1.03 | 1.23 | 1.32 | 1.12 |
| IA-LM | 0.861 | 0.732 | 0.786 | – | 0.969 | – | – | – | – | – | – | – | – | – | – | – | – |
| CAL-12T | 0.711 | 0.604 | 0.632 | 0.273 | 0.445 | – | – | – | – | 0.503 | 0.606 | 0.686 | 0.532 | 0.441 | 0.308 | 0.337 | 0.28 |
| EBC-1 | 0.559 | 0.76 | 0.788 | 0.348 | 0.408 | – | – | – | – | – | – | – | – | – | – | – | – |
